# In patent publication US20260355184A1, “SMALL MOLECULE DEGRADERS OF HIV-1 TAT PROTEIN” (priority 2022, published 2026):
# Where two headings read alike, the source gives them in different places.
# Columns and labels:
# HIV NL4.3 strain = test: HIV infectivity assay, reporter cell line HeLa-CD4-LTR-LacZ, β-Gal activity (Tat protein inhibition); assay type: cell-based, HIV-1 (NL4.3)
# Method: (§1) Next, the activity of these leads against HIV infection was evaluated using the reporter cell line HeLa-CD4-LTR-LacZ, which stably expresses the β-galactosidase (β-Gal) gene under the control of the HIV 5′ LTR. The HIV NL4.3 strain was used for these studies and β-Gal activity was measured 72 hrs post infection (FIG. 3A). Cytotoxicity assays using Cell-Titer-Glo were performed in parallel to assess cell viability (FIG. 3A). […] Their anti-HIV activity was further assessed in acute replication of Jurkat T cells with the NL4.3 strain (FIG. 3A). […] These OM10.1 cells contain a single integrated wild-type provirus, while ACH-2 cells contain a single integrated provirus with a TAR mutation C37T, defective Tat-TAR feedback loop (FIG. 3B).
# [1] = Cytotoxicity assay, Cell-Titer-Glo, HeLa-CD4-LTR-LacZ; settings: human, hela-cd4-ltr-lacz cells
# Method: as §1
# [2] = Human immunodeficiency virus 1, read-out: Infectivity IC50, HeLa-CD4-LTR-LacZ, analogs of TT-44863 (Table 2)
# [3] = Infectivity CC50, HeLa-CD4-LTR-LacZ, analogs of TT-44863 (Table 2)
# [4] = Human immunodeficiency virus 1, read-out: Infectivity IC50, HeLa-CD4-LTR-LacZ, analogs of TT-44881 (Table 1)
# [5] = Infectivity CC50, HeLa-CD4-LTR-LacZ, analogs of TT-44881 (Table 1)
# [6] = Human immunodeficiency virus 1, read-out: Infectivity IC50, HeLa-CD4-LTR-LacZ, analogs of TT-44856 (Table 3)
# [7] = Infectivity CC50, HeLa-CD4-LTR-LacZ, analogs of TT-44856 (Table 3)
SMILES,IC50 (HIV NL4.3 strain; [2]),"CC50 [1, 3]",IC50 (HIV NL4.3 strain; [4]),"CC50 [1, 5]",other results
COc1ccc(C(F)(F)F)cc1NC(=O)Cn1cc(C(F)(F)F)ccc1=O [compound 46917],1 to 30 µM,> 100 µM,–,–,–
O=C(NCCCN1CCCC1=O)c1nn(-c2ccccc2)c2ncccc12 [compound 46752],–,–,> 100 µM,> 100 µM,–
COc1ccc(OC)c(NC(=O)Cn2cc(C(F)(F)F)cc(Cl)c2=O)c1 [compound 46868],> 100 µM,> 100 µM,–,–,–
CN1CCN(CCOc2ccc(C(F)(F)F)cc2NC(=O)Cn2cc(C(F)(F)F)cc(Cl)c2=O)CC1 [compound 52],10 to 20 µM,25 to 50 µM,–,–,–
O=C(NCCCn1ccnc1)c1cc2cccnc2[nH]1 [3-37],–,–,–,–,"IC50 (HIV NL4.3 strain; [6]): > 100 µM; CC50 [1, 7]: > 100 µM"
O=C(NCCCN1CCCC1=O)c1nn(-c2ccccc2)cc1C(F)(F)F [compound 46979],–,–,50 to 100 µM,> 100 µM,–
CCCC(=O)NCc1cn(CCCNC(=O)C(C)(c2ccccc2)c2ccccc2)cn1 [3-62],–,–,–,–,"IC50 (HIV NL4.3 strain; [6]): > 100 µM; CC50 [1, 7]: > 100 µM"
O=C(NCCCN1CCCC1=O)c1nn(-c2ccccc2)c2c1CCCC2 [compound 46819],–,–,> 50 µM,> 50 µM,–
COc1ccc(C(F)(F)F)cc1NC(=O)Cn1cc(F)cc(Cl)c1=O [compound 47006],> 50 µM,> 50 µM,–,–,–
CCOC(=O)c1sc(NC(=O)Cn2cc(C(F)(F)F)cc(Cl)c2=O)nc1C(F)(F)F [compound 47063],23.7 µM,25 to 50 µM,–,–,–
O=C(Cn1cc(C(F)(F)F)cc(Cl)c1=O)Nc1cc(C(F)(F)F)ccc1OCCN1CCOCC1 [compound 51],1 to 10 µM,50 to 100 µM,–,–,–
O=C(Cn1cc(C(F)(F)F)cc(Cl)c1=O)Nc1cccc(C(F)(F)F)c1 [compound 46748],> 100 µM,> 100 µM,–,–,–
COc1ccc(C(F)(F)F)cc1NC(=O)C(CCO)n1cc(C(F)(F)F)cc(Cl)c1=O (centres unmarked) [compound 60],10 to 50 µM,10 to 30 µM,–,–,–
O=C(NCCCN1CCCC1=O)c1ccn(-c2ccccc2)n1 [compound 45732],–,–,> 100 µM,> 100 µM,–
COc1ccc(OC(F)(F)F)cc1NC(=O)Cn1cc(C(F)(F)F)cc(Cl)c1=O [compound 45],1 to 10 µM,> 100 µM,–,–,–
CC(C(=O)NCCCn1cnc(CNC(=O)OCc2ccccc2)c1)(c1ccccc1)c1ccccc1 [3-64],–,–,–,–,"IC50 (HIV NL4.3 strain; [6]): 10 to 30 µM; CC50 [1, 7]: 20 to 50 µM"
CC(NC(=O)C(C)(c1ccccc1)c1ccccc1)c1ccccc1 (centres unmarked) [3-47],–,–,–,–,"IC50 (HIV NL4.3 strain; [6]): 10 to 30 µM; CC50 [1, 7]: > 100 µM"
O=C(NCCCN1CCCC1=O)c1nn(Cc2ccccc2)c2c1CCC2 [compound 46885],–,–,> 100 µM,> 100 µM,–
O=C(NCCCN1CCCC1=O)c1nn(-c2ccccc2)c2ccccc12 [compound 46715],–,–,50 to 100 µM,> 100 µM,–
CN1CCN(CCNC(=O)C(C)(c2ccccc2)c2ccccc2)CC1 [3-51],–,–,–,–,"IC50 (HIV NL4.3 strain; [6]): > 100 µM; CC50 [1, 7]: > 100 µM"
O=C(NCCCN1CCCC1=O)c1cn(-c2ccccc2)c2ncc(F)cc12 [compound 46879],–,–,1 to 50 µM,> 100 µM,–
COc1ccc(C(F)(F)F)cc1-c1noc(Cn2cc(C(F)(F)F)cc(Cl)c2=O)n1 [compound 47111],> 100 µM,> 100 µM,–,–,–
O=C(O)c1ccc(CNC(=O)c2cn(-c3ccccc3)c3ccccc23)cc1 [compound 41784],–,–,> 100 µM,> 100 µM,–

SMILES,IC50 (HIV NL4.3 strain; [2]),"CC50 [1, 3]",IC50 (HIV NL4.3 strain; [4]),"CC50 [1, 5]",other results
CCCCN(CCCN1CCCC1=O)C(=O)c1nn(-c2ccccc2)c2c1CCC2 [GB-07],–,–,50 to 100 µM,50 to 100 µM,–
COc1ccc(C(F)(F)F)cc1NC(=O)C(C)n1cc(C(F)(F)F)cc(Cl)c1=O (centres unmarked) [compound 49],1 to 20 µM,> 100 µM,–,–,–
Cc1nccn1CCCNC(=O)C(c1ccccc1)(c1ccccc1)c1ccccc1 [3-67],–,–,–,–,"IC50 (HIV NL4.3 strain; [6]): 1 to 20 µM; CC50 [1, 7]: 50 to 100 µM"
O=C(NCCCN1CCCC1=O)c1nn(-c2ccccc2)cc1C1CC1 [compound 47011],–,–,> 100 µM,> 100 µM,–
O=C1CCc2c(C(=O)NCCCN3CCCC3=O)nn(-c3ccccc3)c2C1 [GB-11],–,–,10 to 20 µM,> 100 µM,–
CCCC(C(=O)NCCCn1ccnc1C)(c1ccccc1)c1ccccc1 [3-65],–,–,–,–,"IC50 (HIV NL4.3 strain; [6]): 1 to 10 µM; CC50 [1, 7]: 50 to 100 µM"
CCCC(=O)NC(C(=O)NCCCn1ccnc1)(c1ccccc1)c1ccccc1 [3-60],–,–,–,–,"IC50 (HIV NL4.3 strain; [6]): > 100 µM; CC50 [1, 7]: > 100 µM"
COc1ccc(C(F)(F)F)cc1NC(=O)Cn1cc(C(F)(F)F)cc(F)c1=O [compound 47033],1 to 10 µM,50 to 100 µM,–,–,–
COc1ccc(C(C(=O)NCCCn2ccnc2)c2ccccc2)cc1 (centres unmarked) [3-48],–,–,–,–,"IC50 (HIV NL4.3 strain; [6]): 20 to 50 µM; CC50 [1, 7]: > 100 µM"
O=C(NCc1ccccc1N1CCCCC1)c1cn(-c2ccccc2)c2ccccc12 [compound 41924],–,–,> 100 µM,> 100 µM,–
COc1cc(NC(=O)Cn2cc(C(F)(F)F)cc(Cl)c2=O)cc(C(F)(F)F)c1 [compound 61],> 100 µM,> 100 µM,–,–,–
CCCN(CCCN1CCCC1=O)C(=O)c1nn(-c2ccccc2)c2c1CCC2 [GB-06],–,–,5 to 30 µM,> 100 µM,–
CCC(C(=O)NCCCn1cnc2ccccc21)(c1ccccc1)c1ccccc1 [3-70],–,–,–,–,"IC50 (HIV NL4.3 strain; [6]): 20 to 50 µM; CC50 [1, 7]: 50 to 100 µM"
O=C(O)COCCOCCOc1ccc(C(F)(F)F)cc1NC(=O)Cn1cc(C(F)(F)F)cc(Cl)c1=O [compound 48],> 100 µM,> 100 µM,–,–,–
O=C(NCCCn1ccnc1)C(CCO)(c1ccccc1)c1ccccc1 [3-74],–,–,–,–,"IC50 (HIV NL4.3 strain; [6]): 1 to 20 µM; CC50 [1, 7]: > 100 µM"
O=C(NCCCn1ccnc1)C(c1ccccc1)(c1ccccc1)c1ccccc1 [3-58],–,–,–,–,"IC50 (HIV NL4.3 strain; [6]): 1 to 20 µM; CC50 [1, 7]: > 100 µM"
Cc1nccn1CCCNC(=O)C(C)(c1ccccc1)c1ccccc1 [3-52],–,–,–,–,"IC50 (HIV NL4.3 strain; [6]): 1 to 10 µM; CC50 [1, 7]: > 100 µM"
COc1ccc(C(F)(F)F)cc1CNC(=O)Cn1cc(C(F)(F)F)ccc1=O [compound 46960],> 100 µM,> 100 µM,–,–,–
O=C(NCCCN1CCCC1=O)c1cn(-c2ccccc2)c2ncccc12 [compound 46751],–,–,> 100 µM,> 100 µM,–
Cc1cc(C(=O)NCCCN2CCCC2=O)nn1-c1ccccc1 [GB-14],–,–,> 100 µM,> 100 µM,–
O=C(NCCCN1CCCC1=O)c1ccc(=O)n(-c2ccccc2)c1 [compound 47155],–,–,> 100 µM,> 100 µM,–
N#Cc1ccc(NC(=O)c2cn(-c3ccccc3)c3ccccc23)cc1 [compound 41905],–,–,1 to 10 µM,1 to 10 µM,–
CCC(C(=O)NCCCn1ccnc1)c1ccccc1 (centres unmarked) [3-72],–,–,–,–,"IC50 (HIV NL4.3 strain; [6]): > 100 µM; CC50 [1, 7]: > 100 µM"

SMILES,IC50 (HIV NL4.3 strain; [2]),"CC50 [1, 3]",IC50 (HIV NL4.3 strain; [4]),"CC50 [1, 5]",other results
CCCC(C(=O)NCCCn1ccnc1)(c1ccccc1)c1ccccc1 [3-57],–,–,–,–,"IC50 (HIV NL4.3 strain; [6]): 1 to 10 µM; CC50 [1, 7]: > 100 µM"
CCN(CCCN1CCCC1=O)C(=O)c1cc(C)n(-c2ccccc2)n1 [GB-16],–,–,> 100 µM,> 100 µM,–
Cc1ccc(CC(=O)NCCCn2cnc3ccccc32)cc1 [Z102452176],–,–,–,–,"IC50 (HIV NL4.3 strain; [6]): 10 to 30 µM; CC50 [1, 7]: > 100 µM"
COc1ccc(C(F)(F)F)cc1NC(=O)CCn1cc(C(F)(F)F)cc(Cl)c1=O [compound 47020],> 25 µM,> 25 µM,–,–,–
COc1ccc(C)cc1NC(=O)Cn1cc(C(F)(F)F)cc(Cl)c1=O [compound 46689],> 100 µM,> 100 µM,–,–,–
CS(=O)(=O)N1CCN(C(=O)c2cn(-c3ccccc3)c3ccccc23)CC1 [compound 41798],–,–,> 100 µM,> 100 µM,–
CC(C)N(CCCN1CCCC1=O)C(=O)c1nn(-c2ccccc2)c2c1CCC2 [GB-08],–,–,30 to 50 µM,> 100 µM,–
Cc1cccc(-n2cc(C(=O)NCCCN3CCCC3=O)c3ccccc32)c1 [compound 46824],–,–,> 100 µM,> 100 µM,–
O=C(NCCCn1ccnc1)c1cc(O)c2cc(Cl)ccc2n1 [3-38],–,–,–,–,"IC50 (HIV NL4.3 strain; [6]): > 100 µM; CC50 [1, 7]: > 100 µM"
Cc1cc(C(=O)N(C)CCCN2CCCC2=O)nn1-c1ccccc1 [GB-15],–,–,> 100 µM,> 100 µM,–
CC(C(=O)NCC1CCCNC1)(c1ccccc1)c1ccccc1 (centres unmarked) [3-59],–,–,–,–,"IC50 (HIV NL4.3 strain; [6]): 1 to 30 µM; CC50 [1, 7]: > 100 µM"
N#Cc1ccc(C(F)(F)F)cc1NC(=O)Cn1cc(C(F)(F)F)cc(Cl)c1=O [compound 47061],> 100 µM,> 100 µM,–,–,–
N#Cc1ccc(CNC(=O)c2cn(-c3ccccc3)c3ccccc23)cc1 [compound 41969],–,–,12.4 µM,> 100 µM,–
N#Cc1c(NCCCN2CCCC2=O)c2ccccc2[nH]c1=O [compound 46822],–,–,> 100 µM,> 100 µM,–
O=C1CCCN1CCCN(Cc1ccccc1)C(=O)c1nn(-c2ccccc2)c2c1CCC2 [GB-09],–,–,25 to 50 µM,25 to 50 µM,–
CCC(C(=O)NCCCn1ccnc1)(c1ccccc1)c1ccccc1 [3-49],–,–,–,–,"IC50 (HIV NL4.3 strain; [6]): 1 to 10 µM; CC50 [1, 7]: > 100 µM"
COc1ccccc1CNC(=O)Cn1cc(C(F)(F)F)cc(Cl)c1=O [compound 46688],> 100 µM,> 100 µM,–,–,–
O=C(NCCCN1CCCC1=O)c1nc2ccccc2[nH]c1=O [compound 46931],–,–,10 to 30 µM,> 100 µM,–
O=C(NCCCn1ccnc1)C1(O)c2ccccc2-c2ccccc21 [3-36],–,–,–,–,"IC50 (HIV NL4.3 strain; Human immunodeficiency virus 1, read-out: Infectivity IC50): 20 to 50 µM; CC50 [1]: > 100 µM"
COc1ccccc1CNC(=O)Cn1cccc(Cl)c1=O [compound 46747],> 100 µM,> 100 µM,–,–,–
COc1ccc(C(F)(F)F)cc1NC(=O)Cn1cc(C(F)(F)F)cc(Br)c1=O [compound 47055],1 to 10 µM,50 to 100 µM,–,–,–
